Experimental data from patent US20220313780A1, “METHODS AND COMPOSITIONS FOR TREATING INFLAMMATORY CONDITIONS” (THE SCRIPPS RESEARCH INSTITUTE, priority 2019, published 2022).

Tested on: IL-1β
Assay: IL-1β release (Quantikine ELISA) from THP1 cells treated with LPS and ATP
Assay type: cell-based, human
Details: APC 4 μg/mL, TR47 50 μM, P3R 50 μM or TR47/P3R 8 nM & 500 nM for 1 hour before LPS and ATP
Experimental: THP1 cells were plated at a final concentration of 1×10^6/mL in 96 well plates and incubated with PMA (0.5 μM) for 3 hours 37° C. in supplemented RPMI. Media was subsequently changed every 24 hours for 3 days. Selected wells were treated with APC (4 μg/mL), TR47 (50 μM), P3R (50 μM), or TR47/P3R (8 nM & 500 nM, respectively) for 1 hour, washed with DPBS, and incubated with LPS (1 μg/mL) for 3 hours at 37° C. in serum-free RPMI. Cells were washed with DPBS and incubated with ATP (5 mM) in the presence or absence of 10 μM YVAD (caspase 1 inhibitor) for 45 minutes, and the resulting cell supernatant was used in the IL-1(3 Quantikine ELISA following manufacturer's (R&D) directions measuring absorbance, and the concentration of IL-1(3 was calculated following measurement of the standard curve. Data points represent mean±SEM of at least 3 independent experiments. *P<0.05 (vs. LPS+ATP).
[…]. THP1 cells were plated at a final concentration of 1×10^6/mL in 96 well plates and incubated with PMA (0.5 μM) for 3 hours 37° C. in supplemented RPMI. […] Cell supernatants were carefully collected and frozen until assayed using the IL-1β Quantikine ELISA following the manufacturer's (R&D Systems) directions, measuring absorbance. The concentration of IL-1β was calculated following measurement of the standard curve according to the manufacturer's directions.

Row | Sequence | generation and release of IL-1β
1 | GAPPNSFEEFPFSALEGWTGATIT [P3R, PAR3-derived 24-mer peptide] | significantly suppressed
2 | NPNDKYEPFWEDEEKNESGL [TR47, PAR1-derived 20 amino acid peptide] | significantly suppressed
